These molecules were tested on Dd2 strain of P. falciparum (assay: Activity against the Dd2 strain of P. falciparum (SYBR Green I, 72-h incubation)). Settings: Plasmodium falciparum, DD2, 72 h, read-out: EC^50 Dd2.
Format: cell-based
Procedure: The Dd2 strain of P. falciparum was cultured in complete medium (RPMI with L-glutamine, 4.3% heat-inactivated O-positive human serum, 2.08 mg/ml albumax, 0.013 mg/ml hypoxanthine, 1.17 mg/ml glucose, 0.18% NaHCO3, 0.031 M Hepes, 2.60 mM NaOH, and 0.043 mg/ml gentamicin) until the parasitemia reached 3-8%. Parasitemia was determined by checking at least 500 red blood cells from a Giemsa-stained blood smear. The Dd2 cultures along with tested O-positive red blood cells are centrifuged at room temperature at 2,000 rpm for 5 min using an Eppendorf centrifuge 581 OR with an A-4-81 rotor. The medium was aspirated off. For the compound screening, a parasite dilution at a 1% parasitemia and 1.0% hematocrit was created with screening medium (RPMI with L-glutamine, 4.16 mg/ml albumax II, 0.013 mg/ml hypoxanthine, 1.73 mg/ml glucose, 0.18% NaHCO3, 0.031M Hepes, 2.60 mM NaOH, and 0.043 mg/ml gentamicin). The suspension was gassed with 93% nitrogen, 4% carbon dioxide, and 3% oxygen and placed at 37° C. until needed. Using a liquid dispenser, 20 μl of screening medium was dispensed into 384-well, black, clear-bottom plates. With a PinTool, 100 nl of compounds dissolved in DMSO was transferred into the assay plates along with control compound (mefloquine). Next, 30 μl of the parasite suspension in screening medium was then dispensed into the assay plates such that the final parasitemia was 1%, and the final hematocrit was 1.0%. Final concentration of DMSO was 0.125%. Mefloquine at a final concentration of 20 μM and DMSO at a final concentration of 0.125% were used within the assay plates to serve as background and baseline controls, respectively. The assay plates were transferred to incubators (93% nitrogen, 4% carbon dioxide, and 3% oxygen during the 72-h incubation at 37° C.). Ten microliters of detection reagent consisting of 1 OX SYBR Green I (Invitrogen; supplied in 10,000× concentration) in lysis buffer (20 mM Tris-HCl, 5 mM EDTA, 0.16% Saponin wt/vol, 1.6% Triton X vol/vol) was dispensed into the assay plates. For optimal staining, the assay plates were left at room temperature for 24 h in the dark. The assay plates were read by using an Envision (PerkinElmer) reader, with 505 dichroic mirrors with 485-nm excitation and 530-nm emission settings, and the plate reads were from the bottom.

Question: With `COc1ccc2c3c([nH]c2c1)[C@H](CO)N(C(=O)C(C)(C)C)CC31CCN(C(=O)Nc2ccccc2F)CC1` [Compound 23, (R)-N-(2-fluorophenyl)-1′-(hydroxymethyl)-7′-methoxy-2'-pivaloyl-1′,2′,3′,9′-tetrahydrospiro[piperidine-4,4′-pyrido[3,4-b]indole]-1-carboxamide] as the molecule, how does the EC50 read?
Answer: Its EC50 is 2.4 µM.

Question: For `COc1ccc2c3c([nH]c2c1)[C@H](CO[Si](C)(C)C(C)(C)C)N(C(C)=O)CC31CCN(C(=O)OC(C)(C)C)CC1` [Compound 24, (R)-tert-butyl 2′-acety1-1′-(((tert-butyldimethylsilyl)oxy)methyl)-7′-methoxy-1′,2′,3′,9′-tetrahydrospiro [piperidine-4,4′-pyrido[3,4-b]indole]-1-carboxylate], which EC50 is on record?
Answer: The EC50 was 1.24 µM.

Question: How did the EC50 turn out when `COc1ccc2c3c([nH]c2c1)[C@H](CO[Si](C)(C)C(C)(C)C)N(C(C)=O)CC31CCNCC1` [Compound 25, (R)-1-(1′-(((tert-butyldimethylsilyl)oxy)methyl)-7′-methoxyspiro[piperidine-4,4′-pyrido[3,4-b]indol]-2′(1′H,3′H,9′H)-yl)ethanone] was run?
Answer: The EC50 was 1.62 µM.

Question: How did the EC50 turn out when `COc1ccc2c3c([nH]c2c1)[C@H](CO)NCC31CCN(C(=O)Nc2ccccc2F)CC1` [Compound 26, (R)-N-(2-fluorophenyl)-1′-(hydroxymethyl)-7′-methoxy-1′,2′,3′,9′-tetrahydrospiro [piperidine-4,4′-pyrido[3,4-b]indole]-1-carboxamide] was run?
Answer: The EC50 was 1.33 µM.

Question: For `COc1ccc2c3c([nH]c2c1)[C@H](CO)N(C(C)=O)CC31CCN(CCc2ccccc2F)CC1` [Compound 27, (R)-1-(1-(2-fluorophenethyl)-1′-(hydroxymethyl)-7′-methoxyspiro[piperidine-4,4′-pyrido[3,4-b]indol]-2′(1′H,3′H,9′H)-yl) ethanone], which EC50 is on record?
Answer: Its EC50 is 2.73 µM.

Question: With `C=CCOC(=O)N1CC2(CCN(C(=O)Oc3ccc([N+](=O)[O-])cc3)CC2)c2c([nH]c3cc(OC)ccc23)[C@@H]1CO` [Compound 28, (R)-2′-allyl 1-(4-nitrophenyl) 1′-(hydroxymethyl)-7′-methoxy-3′,9′-dihydrospiro[piperidine-4,4′-pyrido[3,4-b]indole]-1,2′(1′H)-dicarboxylate] as the molecule, how does the EC50 read?
Answer: The EC50 was 7.14 µM.

Question: `COc1ccc2c3c([nH]c2c1)[C@H](C)NCC31CCN(C(=O)OC(C)(C)C)CC1` [Compound 30, (S)-tert-butyl 7′-methoxy-1′-methyl-1′,2′,3′,9′-tetrahydrospiro[piperidine-4,4′-pyrido[3,4-b]indole]-1-carboxylate] was tested. Which EC50 did it give?
Answer: Its EC50 is 7.44 µM.

Question: How did the EC50 turn out when `COc1ccc2c3c([nH]c2c1)[C@H](CN(C)C)N(C(C)=O)CC31CCN(C(=O)Nc2ccccc2F)CC1` [Compound 32, (S)-2′-acetyl-1′-((dimethylamino)methyl)-N-(2-fluoropheny1)-7′-methoxy-1′,2′,3′,9′-tetrahydrospiro[piperidine-4,4′-pyrido[3,4-b]indole]-1-carboxamide] was run?
Answer: The EC50 was 0.485 µM.

Question: For `COc1ccc2c3c([nH]c2c1)[C@H](CO)N(C(=O)C1CC1)CC31CCN(C(=O)Nc2ccccc2F)CC1` [Compound 33, (R)-2′-(cyclopropanecarbonyl)-N-(2-fluorophenyl)-1′-(hydroxymethyl)-7′-methoxy-1′,2′,3′,9′-tetrahydrospiro[piperidine-4,4′-pyrido[3,4-b]indole]-1-carboxamide], which EC50 is on record?
Answer: The EC50 was 2.98 µM.

Question: Which EC50 does the source give for `COc1ccc2c3c([nH]c2c1)[C@H](C)N(C(C)=O)CC31CCN(C(=O)OC(C)(C)C)CC1` [Compound 34, (S)-tert-butyl 2′-acetyl-7′-methoxy-1′-methyl-1′,2′,3′,9′-tetrahydrospiro[piperidine-4,4′-pyrido[3,4-b]indole]-1-carboxylate] here?
Answer: The EC50 was 3.77 µM.

Question: Which EC50 does the source give for `COc1ccc2c3c([nH]c2c1)[C@H](CO)N(C(C)=O)CC31CCN(C(=O)Nc2ccccc2)CC1` [Compound 35, (R)-2′-acetyl-1′-(hydroxymethyl)-7′-methoxy-N-phenyl-1′,2′,3′,9′-tetrahydrospiro[piperidine-4,4′-pyrido[3,4-b]indole]-1-carboxamide] here?
Answer: Its EC50 is 0.175 to 0.41 µM.

Question: For `CCCC(=O)N1CC2(CCN(C(=O)Nc3ccccc3F)CC2)c2c([nH]c3cc(OC)ccc23)[C@@H]1CO` [Compound 36, (R)-2′-butyryl-N-(2-fluorophenyl)-1′-(hydroxymethyl)-7′-methoxy-1′,2′,3′,9′-tetrahydrospiro[piperidine-4,4′-pyrido[3,4-b]indole]-1-carboxamide], which EC50 is on record?
Answer: The EC50 was 0.423 µM.

Question: For `COc1ccc2c3c([nH]c2c1)[C@H](CO)N(C(C)=O)CC31CCN(C(=O)Nc2cccc(F)c2)CC1` [Compound 37, (R)-2′-acetyl-N-(3-fluorophenyl)-1′-(hydroxymethyl)-7′-methoxy-1′,2′,3′,9′-tetrahydrospiro[piperidine-4,4′-pyrido[3,4-b]indole]-1-carboxamide], which EC50 is on record?
Answer: Its EC50 is 0.577 µM.

Question: `COc1ccc2c3c([nH]c2c1)[C@H](CO[Si](C)(C)C(C)(C)C)N(C(C)=O)CC31CCN(Cc2ccccc2F)CC1` [Compound 38, (R)-1-(1′-(((tert-butyldimethylsilyl)oxy)methyl)-1-(2-fluorobenzyl)-7′-methoxyspiro[piperidine-4,4′-pyrido[3,4-b]indol]-2′(1′H,3′H,9′H)-yl)ethanone] was tested. Which EC50 did it give?
Answer: The EC50 was 0.809 µM.

Question: For `COc1ccc2c3c([nH]c2c1)[C@H](CO)N(C(C)=O)CC31CCN(C(=O)Cc2ccccc2F)CC1` [Compound 39], which EC50 is on record?
Answer: The EC50 was 0.752 µM.

Question: `COc1ccc2c3c([nH]c2c1)[C@H](CO[Si](C)(C)C(C)(C)C)NCC31CCN(C(=O)Nc2ccccc2F)CC1` [Compound 40, (R)-1′-(((tert-butyldimethylsilyl)oxy)methyl)-N-(2-fluorophenyl)-7′-methoxy-1′,2′,3′,9′-tetrahydrospiro[piperidine-4,4′-pyrido[3,4-b]indole]-1-carboxamide] was tested. Which EC50 did it give?
Answer: Its EC50 is 1.22 µM.

Question: With `COc1ccc2c3c([nH]c2c1)[C@H](CO)N(C(C)=O)CC31CCN(C(=O)c2ccccc2F)CC1` [Compound 41, (R)-1-(1-(2-fluorobenzoyl)-1′-(hydroxymethyl)-7′-methoxyspiro[piperidine-4,4′-pyrido[3,4-b]indol]-2′(1′H,3′H,9′H)-yl)ethanone] as the molecule, how does the EC50 read?
Answer: The EC50 was 17.5 µM.

Question: Which EC50 does the source give for `COc1ccc2c3c([nH]c2c1)[C@H](CO)N(CCc1ccccc1)CC31CCN(C(=O)Nc2ccccc2F)CC1` [Compound 42, (R)-N-(2-fluorophenyl)-1′-(hydroxymethyl)-7′-methoxy-2′-phenethyl-1′,2′,3′,9′-tetrahydrospiro[piperidine-4,4′-pyrido[3,4-b]indole]-1-carboxamide] here?
Answer: Its EC50 is 1.75 to 1.9 µM.

Question: `COc1ccc2c3c([nH]c2c1)[C@H](CO)N(C(C)=O)CC31CCN(C(=O)NC2CCCCC2)CC1` [Compound 43, (R)-2′-acetyl-N-cyclohexy1-1′-(hydroxymethyl)-7′-methoxy-1′,2′,3′,9′-tetrahydrospiro[piperidine-4,4′-pyrido[3,4-b]indole]-1-carboxamide] was tested. Which EC50 did it give?
Answer: Its EC50 is 3.37 to 5.22 µM.

Question: For `COc1ccc2c3c([nH]c2c1)[C@H](CO)N(C(C)=O)CC31CCN(S(=O)(=O)Cc2ccccc2F)CC1` [Compound 44, (R)-1-(1-((2-fluorobenzyl)sulfonyl)-1′-(hydroxymethyl)-7′-methoxyspiro[piperidine-4,4′-pyrido[3,4-b]indol]-2′(1′H,3′H,9′H)-yl)ethanone], which EC50 is on record?
Answer: Its EC50 is 1.6 to 3.28 µM.

Question: With `COc1ccc2c3c([nH]c2c1)[C@H](CO)N(C(C)=O)CC31CCN(C(=O)Nc2cccc(F)c2F)CC1` [Compound 45, (R)-2′-acetyl-N-(2,3-difluorophenyl)-1′-(hydroxymethyl)-7′-methoxy-1′,2′,3′,9′-tetrahydrospiro[piperidine-4,4′-pyrido[3,4-b]indole]-1-carboxamide] as the molecule, how does the EC50 read?
Answer: The EC50 was 0.044 to 0.131 µM.

Question: Which EC50 does the source give for `COc1ccc2c3c([nH]c2c1)[C@H](CN1CCOCC1)N(C(C)=O)CC31CCN(C(=O)OC(C)(C)C)CC1` [Compound 46, (S)-tert-butyl 2′-acetyl-7′-methoxy-1′-(morpholinomethyl)-1′,2′,3′,9′-tetrahydrospiro[piperidine-4,4′-pyrido[3,4-b]indole]-1-carboxylate] here?
Answer: The EC50 was 2.43 to 6.33 µM.

Question: With `COc1ccc2c3c([nH]c2c1)[C@@H]1COCC(=O)N1CC31CCN(C(=O)Nc2ccccc2F)CC1` [Compound 47, (R)-N-(2-fluorophenyl)-10-methoxy-4-oxo-1,3,4,6,12,12b-hexahydrospiro[[1,4]oxazino[4′,3′:1 ,2]pyrido[3,4-b]indole-7,4′-piperidine]-1′-carboxamide] as the molecule, how does the EC50 read?
Answer: Its EC50 is 2.23 to 3.23 µM.

Same assay, conditions: read-out: EC^50 Dd2

Question: How did the EC50 turn out when `COc1ccc2c3c([nH]c2c1)[C@H](CO[Si](C)(C)C(C)(C)C)N(C(C)=O)CC31CCN(C(=O)OC(C)(C)C)CC1` [Compound 29, (R)-tert-butyl 2′-acetyl-1′-(((tert-butyldimethylsilyl)oxy)methyl)-7′-methoxy-1′,2′,3′,9′-tetrahydrospiro[piperidine-4,4′-pyrido[3,4-b]indole]-1-carboxylate] was run?
Answer: The EC50 was 1.39 µM.

Source: patent US9428507B2, “Compounds for the treatment of malaria” (The Broad Institute, Inc., priority 2013, dated 2016)
